Converted amounts (≈) assume the structure as drawn.
What was measured:
Format in all cases: functional
[1] = test system: Campylobacter jejuni; experiment: Antibacterial activity against Campylobacter jejuni assessed as resistant isolates by disk diffusion method
[2] = test system: Campylobacter coli; experiment: Antibacterial activity against Campylobacter coli assessed as resistant isolates by disk diffusion method
[3] = test system: Campylobacter sp.; experiment: Antibacterial activity against Campylobacter sp. assessed as resistance breakpoint by CLSI method
[4] = test system: Campylobacter sp.; experiment: Antibacterial activity against erythromycin resistant Campylobacter sp. by agar plate dilution method
[5] = test system: Campylobacter sp.; experiment: Antibacterial activity against erythromycin susceptible Campylobacter sp. by agar plate dilution method
[6] = test system: Campylobacter sp.; experiment: Antibacterial activity against erythromycin resistant Campylobacter sp. assessed as resistance breakpoint by CLSI method
[7] = test system: Campylobacter sp.; experiment: Antibacterial activity against erythromycin susceptible Campylobacter sp. assessed as resistance breakpoint by CLSI method
[8] = test system: Campylobacter sp.; experiment: Antibacterial activity against Campylobacter sp. assessed as resistance breakpoint by EUCAST method
[9] = test system: Campylobacter sp.; experiment: Antibacterial activity against erythromycin resistant Campylobacter sp. after 48 hrs by Etest method
[10] = test system: Campylobacter sp.; experiment: Antibacterial activity against erythromycin susceptible Campylobacter sp. after 48 hrs by Etest method
[11] = test system: Campylobacter sp.; experiment: Antimicrobial activity against erythromycin susceptible Campylobacter sp. assessed as clear zone of inhibition by disk diffusion method
[12] = test system: Campylobacter sp.; experiment: Antimicrobial activity against erythromycin resistant Campylobacter sp. assessed as clear zone of inhibition by disk diffusion method

Row | Compound | Activity [1] [%] | Activity [2] [%] | Activity [3] [µg/mL] | MIC50 [4] [µg/mL] | MIC90 [4] [µg/mL] | MIC50 [5] [µg/mL] | MIC90 [5] [µg/mL] | Activity [6] [%] | Activity [7] [%] | Activity [8] [µg/mL] | MIC50 [9] [ng/mL] | MIC90 [9] [µg/mL] | MIC50 [10] [ng/mL] | MIC90 [10] [µg/mL] | inhibition zone (IZ) [11] [mm] | inhibition zone (IZ) [12]
1 | CCC[C@@H]1C[C@@H](C(=O)N[C@@H]([C@H]2O[C@H](SC)[C@H](O)[C@@H](O)[C@H]2O)[C@H](C)Cl)N(C)C1 [CLINDAMYCIN] | 5 | 50 | 8 | 64 (≈ 151 µM) | 64 (≈ 151 µM) | 2 (≈ 4.71 µM) | 4 (≈ 9.41 µM) | 89.5 | 1.4 | – | – | – | – | – | – | –
2 | CC1COc2c(N3CCN(C)CC3)c(F)cc3c(=O)c(C(=O)O)cn1c23 (centres undefined) [OFLOXACIN] | 40.9 | 83.3 | 8 | 16 (≈ 44.3 µM) | 64 (≈ 177 µM) | 0.25 (≈ 0.692 µM) | 32 (≈ 88.6 µM) | 84.2 | 40.6 | – | – | – | – | – | – | –
3 | CN(C)c1cc(NC(=O)CNC(C)(C)C)c(O)c2c1C[C@H]1C[C@H]3[C@H](N(C)C)C(O)=C(C(N)=O)C(=O)[C@@]3(O)C(O)=C1C2=O [TIGECYCLINE] | 0 | 0 | 0.5 | – | – | – | – | 0 | 0 | >0.5 | 8 (≈ 0.0137 µM) | 0.023 (≈ 0.0393 µM) | 8 (≈ 0.0137 µM) | 0.032 (≈ 0.0546 µM) | – | –
4 | CCn1cc(C(=O)O)c(=O)c2cc(F)c(N3CCNCC3)cc21 [NORFLOXACIN] | 40.9 | 83.3 | 16 | 64 (≈ 200 µM) | > 64 | 8 (≈ 25.1 µM) | 256 (≈ 802 µM) | 94.7 | 39.6 | – | – | – | – | – | – | –
5 | GENTAMICIN | 0.9 | 0 | 16 | 0.5 | 0.5 | 4 | 64 | 0 | 0.9 | – | – | – | – | – | – | –
6 | CC[C@H]1OC(=O)[C@H](C)[C@@H](O[C@H]2C[C@@](C)(OC)[C@@H](O)[C@H](C)O2)[C@H](C)[C@@H](O[C@@H]2O[C@H](C)C[C@H](N(C)C)[C@H]2O)[C@](C)(O)C[C@@H](C)CN(C)[C@H](C)[C@@H](O)[C@]1(C)O [AZITHROMYCIN] | 5 | 38.9 | 4 | > 128 | > 128 | 0.25 (≈ 0.334 µM) | 0.5 (≈ 0.668 µM) | 89.5 | 0.5 | – | – | – | – | – | – | –
7 | CC1(C)S[C@@H]2[C@H](NC(=O)[C@H](N)c3ccccc3)C(=O)N2[C@H]1C(=O)O [AMPICILLIN] | 18.2 | 22.2 | 32 | 8 (≈ 22.9 µM) | 128 (≈ 366 µM) | 0.5 (≈ 1.43 µM) | 32 (≈ 91.6 µM) | 36.8 | 16.6 | – | – | – | – | – | – | –
8 | CC[C@H]1OC(=O)[C@H](C)C(=O)[C@H](C)[C@@H](O[C@@H]2O[C@H](C)C[C@H](N(C)C)[C@H]2O)[C@](C)(OC)C[C@@H](C)C(=O)[C@H](C)[C@H]2N(CCCCn3cnc(-c4cccnc4)c3)C(=O)O[C@]12C [TELITHROMYCIN] | – | – | – | 32 (≈ 39.4 µM) | > 128 | 0.064 (≈ 0.0788 µM) | 0.25 (≈ 0.308 µM) | – | – | – | – | – | – | – | – | –
9 | C[C@@H](O)[C@H]1C(=O)N2C(C(=O)O)=C(SCCNC=N)C[C@H]12 [IMIPENEM ANHYDROUS] | 0 | 0 | 16 | 0.25 (≈ 0.835 µM) | 0.5 (≈ 1.67 µM) | 0.016 (≈ 0.0534 µM) | 0.25 (≈ 0.835 µM) | 0 | 0 | – | – | – | – | – | – | –
10 | CN(C)[C@@H]1C(O)=C(C(N)=O)C(=O)[C@@]2(O)C(O)=C3C(=O)c4c(O)cccc4[C@@](C)(O)[C@H]3C[C@@H]12 [TETRACYCLINE] | 28.1 | 66.7 | 16 | 128 (≈ 288 µM) | > 128 | 2 (≈ 4.5 µM) | 8 (≈ 18 µM) | 73.7 | 26.9 | – | – | – | – | – | – | –
11 | C[C@H]1COc2c(N3CCN(C)CC3)c(F)cc3c(=O)c(C(=O)O)cn1c23.C[C@H]1COc2c(N3CCN(C)CC3)c(F)cc3c(=O)c(C(=O)O)cn1c23.O [LEVOFLOXACIN] | 34.5 | 72.2 | 8 | 8 | – | 1 | > 64 | 78.9 | 33.6 | – | – | – | – | – | – | –
12 | CC[C@H]1OC(=O)[C@H](C)[C@@H](O[C@H]2C[C@@](C)(OC)[C@@H](O)[C@H](C)O2)[C@H](C)[C@@H](O[C@@H]2O[C@H](C)C[C@H](N(C)C)[C@H]2O)[C@](C)(OC)C[C@@H](C)C(=O)[C@H](C)[C@@H](O)[C@]1(C)O [CLARITHROMYCIN] | – | – | – | > 128 | > 128 | 0.25 (≈ 0.334 µM) | 128 (≈ 171 µM) | – | – | – | – | – | – | – | – | –
13 | C[C@@H](O)[C@H]1C(=O)N2C(C(=O)O)=C(S[C@@H]3CN[C@H](C(=O)N(C)C)C3)[C@H](C)[C@H]12 [MEROPENEM] | 0 | 0 | 16 | ≤ 0.03 | 0.25 (≈ 0.652 µM) | 4 (≈ 10.4 µM) | 64 (≈ 167 µM) | 0 | 0 | – | – | – | – | – | – | –
14 | O=C(O)c1cn(C2CC2)c2cc(N3CCNCC3)c(F)cc2c1=O [CIPROFLOXACIN] | 42.4 | – | – | 16 (≈ 48.3 µM) | > 32 | 0.5 (≈ 1.51 µM) | 1 (≈ 3.02 µM) | – | – | – | – | – | – | – | – | –
15 | O=C(N[C@H](CO)[C@H](O)c1ccc([N+](=O)[O-])cc1)C(Cl)Cl [CHLORAMPHENICOL] | 0.5 | 0 | 32 | 4 (≈ 12.4 µM) | 16 (≈ 49.5 µM) | 0.125 (≈ 0.387 µM) | 8 (≈ 24.8 µM) | 0 | 0.5 | – | – | – | – | – | – | –
16 | CCn1cc(C(=O)O)c(=O)c2ccc(C)nc21 [NALIDIXIC ACID] | 41.4 | 83.3 | 32 | 128 (≈ 551 µM) | 128 (≈ 551 µM) | 2 (≈ 8.61 µM) | 8 (≈ 34.4 µM) | 94.7 | 40.1 | – | – | – | – | – | – | –
17 | N[C@@H]1CN(c2c(F)cc3c(=O)c(C(=O)O)cn([C@@H]4C[C@@H]4F)c3c2Cl)CC12CC2 [SITAFLOXACIN ANHYDROUS] | – | – | – | 0.125 (≈ 0.305 µM) | 0.5 (≈ 1.22 µM) | 0.5 (≈ 1.22 µM) | 1 (≈ 2.44 µM) | – | – | – | – | – | – | – | – | –
18 | CC[C@H]1OC(=O)[C@H](C)[C@@H](O[C@H]2C[C@@](C)(OC)[C@@H](O)[C@H](C)O2)[C@H](C)[C@@H](O[C@@H]2O[C@H](C)C[C@H](N(C)C)[C@H]2O)[C@](C)(O)C[C@@H](C)C(=O)[C@H](C)[C@@H](O)[C@]1(C)O [ERYTHROMYCIN] | 4.5 | 50 | 16 | > 128 | > 128 | 2 (≈ 2.73 µM) | 4 (≈ 5.45 µM) | 100 | 0 | – | – | – | – | – | >23 | <=23 mm
19 | COc1c(N2C[C@@H]3CCCN[C@@H]3C2)c(F)cc2c(=O)c(C(=O)O)cn(C3CC3)c12 [MOXIFLOXACIN] | – | – | – | 2 (≈ 4.98 µM) | 16 (≈ 39.9 µM) | ≤ 0.03 | 0.125 (≈ 0.311 µM) | – | – | – | – | – | – | – | – | –

Reference: ChEMBL document CHEMBL1255394, “Antimicrobial susceptibilities of multidrug-resistant Campylobacter jejuni and C. coli strains: in vitro activities of 20 antimicrobial agents” (2010)
